This note sets out measurements from patent publication US12582639B2, “Preventive, relief or therapeutic use of 2,3,5-substituted thiophene compound against gastrointestinal stromal tumor” (PHAROS IBIO CO., LTD, priority 2020, dated 2026).

SMILES strings stand for the structures. pIC50: −log10 of the molar value.

The test system of assay [1] is GIST-T1 cell line. The experiment in a line: Growth inhibition of gastrointestinal stromal tumor cell line GIST-T1 (Celltiter glo). The class given is cell-based. The settings on record: Homo sapiens, GISTT1; for GI50: GIST-T1, 72 hours. The method, then: Specifically, 100 μl of the GIST-T1 cell line was added to each well of a 96-well plate at a concentration of 5,000 cells/100 μl. After 24 hours of stabilization, 100 μl of the GIST-T1 cell line was treated with 0.5 μl of each of control compounds and PHI-101 (⅓ serial dilution, 10 points) to a final concentration of up to 50 μM, and cultured at 37° C. under 5% CO2 for 72 hours. As the control compounds, imatinib, dasatinib, sunitinib and ponatinib, which are c-kit inhibitors, were used. After culture, the cells were counted using a Celltiter glo assay kit (Promega), and the 50% growth inhibition values (GI50, μM) of the control compounds and PHI-101 were measured.

Assay [2] deals with c-kit D816V Ba/F3 cell line. Put plainly: Growth inhibition of c-kit D816V mutant Ba/F3 cell line (Celltiter glo). The class given is cell-based. The settings on record: for GI50: Mus musculus, BaF3, cKIT D816V Ba/F3, 72 hours. On the procedure: Specifically, 100 μl of a Ba/F3 cell line with a c-kit D816V mutation (FIG. 1) was added to each well of a 96-well plate at a concentration of 10,000 cells/100 μl. After 4 hours, 100 μl of the Ba/F3 cell line was treated with 0.5 μl of each of control compounds and PHI-101 (10-point 1:3 serial dilutions) to a final concentration of up to 50 μM, and cultured at 37° C. under 5% CO2 for 72 hours. As the control compounds, imatinib and sunitinib which are c-kit inhibitors were used. After culture, the cells were counted using a Celltiter glo assay kit (Promega), and the 50% growth inhibition values (GI50, μM) of the control compounds and PHI-101 were measured.

Another assay relates to Parental Ba/F3 cell line. Put plainly: Growth inhibition of parental Ba/F3 cell line (Celltiter glo). The class given is cell-based. The settings on record: Mus musculus, BaF3; Parental Ba/F3, 72 hours.
Assay [3] relates to c-kit phosphorylation and downstream signaling (p-STAT3, p-ERK1/2) in c-kit D816V mutant Ba/F3 cell line. Put plainly: Inhibition of c-kit phosphorylation and downstream signaling in c-kit D816V Ba/F3 cells (Western blot). Format: cell-based. The settings on record: 0.1, 1 and 10 μM, 2 hours; controls sunitinib and dasatinib. On the procedure:
The inhibitory activities of the control compound and PHI-101 against c-kit phosphorylation and downstream signaling (p-STAT3, p-ERK1/2) in the c-kit D816V mutant Ba/F3 cell line were measured, and as control compounds, sunitinib and dasatinib were used.
(§1) Specifically, the c-kit D816V mutant Ba/F3 cell line was dispensed at a density of 1×10^6 cells/ml, treated with each of the control compounds and PHI-101 at concentrations of 0.1, 1 and 10 μM, and then cultured for 2 hours. Lysates of the cells were obtained using lysis buffer (50 mM Tris-HCl pH7.5, 1% NP40, 1 mM EDTA, 150 mM NaCl, 5 mM, Na3VO4 and 2.5 mM NaF, and a protease inhibitor cocktail). Equal amounts of the cell lysates were electrophoresed using 8% SDS-PAGE gel at 100 V for 1 hour and 30 minutes, and the separated protein was electrically transferred to nitrocellulose membranes. The membranes were blocked with 5% skim milk at room temperature for 30 minutes, and allowed to react with primary antibodies (diluted 1:5,000), including p-c-kit tyrosine 719 (Y719), p-STAT3 tyrosine 705 (Y705) and p-ERK1/2 threonine 202/tyrosine 204 (T202/Y204) at 4° C. for 16 to 20 hours. […] Next, the membranes were washed three times with TBST for 5 minutes each time and treated with a chemiluminescent substrate reagent, and the expression level of the protein was measured by detecting luminescence with an X-ray film in the dark.

Assay [4] deals with c-kit D816V mutant Ba/F3 cell line. The experiment in a line: Apoptotic effect, Annexin V-PI FACS analysis. The class given is cell-based. The settings on record: 24 hours. On the procedure: Specifically, the c-kit D816V mutant Ba/F3 cell line was adjusted to a concentration of 1×10^6 cells/ml and treated with each of PHI-101 at concentrations of 0.1, 1 and 10 μM and the control compound sunitinib at concentrations of 1 and 10 μM for 24 hours. Thereafter, the medium was removed and the cells were washed once with 1 ml PBS. The PBS was removed by centrifugation at 1,000 rpm for 5 minutes. The cells were dissolved in 100 μl of PBS containing Ca^2+ and Mg^2+ and allowed to react with 5 μl of Annexin V for 20 minutes. After completion of the reaction, 400 μl of PBS containing Ca^2+ and Mg^2+ was added, and 5 μl of propidium iodide (PI) was added, and then the degree of apoptotic cell death was analyzed by FACS (fluorescence activated cell sorter) assay using a flow cytometer (FACS-C6, BD).

Assay [5] shares this test system. Put plainly: Cell cycle FACS assay. Format: cell-based. The following applies: 1 μM, 24 hours. On the procedure:
The c-kit D816V mutant Ba/F3 cell line was treated with 1 μM of PHI-101, and then the SubG1/GO-1 population was analyzed by cell cycle FACS assay.
Specifically, the c-kit D816V mutant Ba/F3 cell line was adjusted to a concentration of 1×10^6 cells/ml and treated with each of PHI-101 and the control compound sunitinib at a concentration of 1 μM for 24 hours. Thereafter, the medium was removed, and the c-kit D816V mutant Ba/F3 cell line was fixed in 70% ethanol at 4° C. for 24 hours, and then incubated in a PBS buffer solution containing 40 μg/ml of propidium iodide (PI) and 100 μg/ml of RNase for 30 minutes to completely stain the total DNA. Cell cycle analysis of the stained cells was performed using a flow cytometer (FACS-C6, BD). The proportion of cells in G0/G1 phase, S phase and G2/M phase was measured, and based on the measurement results, the SubG1/GO-1 population was determined.

Assay [6] relates to c-kit phosphorylation and downstream signaling (p-AKT, p-ERK1/2, p-S6) in GIST-T1 cell line. The experiment in a line: Inhibition of c-kit phosphorylation and downstream signaling in GIST-T1 cells (Western blot). Format: cell-based, human. The settings on record: 0.01, 0.1 and 1 μM.
For assay [7], the system named is GIST-T1 cell line. Put plainly: Apoptotic effect, cleaved PARP Western blot in GIST-T1. Format: cell-based, human. The settings on record: 0.01, 0.1 and 1 μM, 24 hours. On the procedure: as §1, with “membranes.” for “membranes. The membranes were blocked with 5% skim milk at room temperature for 30 minutes, and allowed to react with primary antibodies (diluted 1:5,000), including p-c-kit tyrosine 719 (Y719), p-STAT3 tyrosine 705 (Y705) and p-ERK1/2 threonine 202/tyrosine 204 (T202/Y204) at 4° C. for 16 to 20 hours.”
A gastrointestinal stromal tumor cell line was treated with PHI-101, and the level of cleaved PARP, an apoptosis marker, was analyzed. […]
Specifically, the apoptotic effect of PHI-101 against the GIST-T1 cell line was analyzed in the same manner as in Example 1-2, except that the GIST-T1 cell line was treated with each of the control compounds at a concentration of 1 μM and PHI-101 at concentrations of 0.01, 0.1 and 1 μM for 24 hours, and that cleaved PARP diluted at 1:3,000 was used as a primary antibody.

In assay [8] the test system is c-kit D816V Ba/F3 cell line xenograft mouse model. The experiment in a line: Survival time of c-kit D816V Ba/F3 cell line xenograft mouse model. Format: in vivo. The following applies: oral, daily. The method, then: As mice, 6-8-week-old NOD SCID female mice (18 to 22 g) (GemPharmatech Co., Ltd.) were prepared. Mice were acclimatized for 7 days before use in the experiment, and mice with abnormal health were excluded from the experiment. Mice were bred in a cage (300×180×150 mm) at a 22±3° C. and a relative humidity of 40% to 70% with a 12-hr light/12-hr dark cycle. Mice were allowed access to sterilized dry granular food (Beijing Keaoxieli Feed Co., Ltd., Beijing, China) and water ad libitum for the entire experimental period except for the period specified in the protocol.
50 ml of c-kit D816V mutant Ba/F3 cells suspension cultured in a 75 T flask were placed in a conical tube and centrifuged at 800 rpm for 2 minutes, centrifuged with DPBS (Dulbecco's Phosphate-Buffered Saline, Welgene) at 800 rpm for 2 minutes, washed, and then suspended in RPMI1640 (Welgene) without antibiotics and fetal bovine serum (FBS). Thereafter, the cells were stained with trypan blue and counted with a hemocytometer. […]
Specifically, while the presence or absence of abnormalities in the mouse model of Example 3-1 was monitored daily by checking the skin condition, bleeding and stool status, whether the body weight changed was checked by measuring the mouse weight at intervals of 3 days after the start of oral administration of each drug. […]

Consider `Cc1nc(Nc2ncc(C(=O)Nc3c(C)cccc3Cl)s2)cc(N2CCN(CCO)CC2)n1` [Dasatinib, dasatinib], for which the GI50 in the assay on GIST-T1 cell line [1] amounted to 73 nM.
`Cc1ccc(NC(=O)c2ccc(CN3CCN(C)CC3)cc2)cc1Nc1nccc(-c2cccnc2)n1` [Imatinib, imatinib]: the results for the GI50 (in assay [2]; with Parental Ba/F3 cell line; in the assay with GIST-T1 cell line [1]) were 11500 nM, 12700 nM and 64 nM, respectively.
`NC(=O)Nc1cc(C#Cc2cccc(F)c2)sc1C(=O)N[C@H]1CCCNC1` [PHI-101, (S)-5-((3-fluorophenyl)ethynyl)-N-(piperidin-3-yl)-3-ureidothiophene-2-carboxamide]: the GI50 is 912 nM in [2], 5010 nM in the assay with Parental Ba/F3 cell line and 36 nM with GIST-T1 cell line [1]. In addition, the “inhibitory activity against the c-kit D816V Ba/F3 mutant cell line compared with control compounds” value in assay [2] (controls imatinib and sunitinib) is listed as “higher inhibitory activity against the c-kit D816V Ba/F3 mutant cell line than the control compounds”. Besides, the “selectivity for c-kit D816V Ba/F3 mutant cell line versus parental Ba/F3 cell line” value in [2] (from GI50 values of Table 1) is listed as “higher selectivity for the c-kit D816V Ba/F3 mutant cell line than for the parental Ba/F3 cell line”. The “inhibitory activity against p-c-kit (Y719) phosphorylation” value in [3] is “higher inhibitory activity against p-c-kit (Y719) phosphorylation than the control compounds”. In addition, the induction of apoptosis result in assay [4] (0.1 μM) is “strongly induced apoptosis”. Moreover, the “apoptosis, concentration dependence” value in assay [4] (0.1, 1 and 10 μM) is listed as “apoptosis increased in a concentration-dependent manner”. The SubG1/GO-1 population result in assay [5] is “increased”. Besides, the pIC50 in the assay with GIST-T1 cell line [1] (GIST-T1 proliferation, read-out: IC50 value in GIST-T1 cells) is 7.44. Also, the “c-kit phosphorylation and downstream signaling” value in assay [6] was “decreased c-kit phosphorylation and downstream signaling in a concentration-dependent manner”. Also, the “level of cleaved PARP (apoptosis marker)” value with GIST-T1 cell line [7] is on record as “increased in a manner dependent on the concentration of PHI-101”. Also, in assay [8] (7 mg/kg), the “prolongation of survival time compared to vehicle-administered group” value was 3 days. For the same compound, the “survival time compared to vehicle-administered group” value in assay [8] (80 mg/kg) is recorded as “doubled”.
With `CCN(CC)CCNC(=O)c1c(C)[nH]c(/C=C2\C(=O)Nc3ccc(F)cc32)c1C` [Sunitinib, sunitinib], the GI50 in [2] worked out at 2650 nM; with Parental Ba/F3 cell line it was 13300 nM; in the assay on GIST-T1 cell line [1], 26 nM.
